Blank lines part the entries; values can stand above or below the compound they belong to.
Legend:
[1] = Antiproliferative activity against human NCI60 cells after 48 hrs; type: functional; conditions: NCI60, 48 h
[2] = molecular target: T1, DNA topoisomerase 1 (Homo sapiens) (UniProt P11387); assay: Activity at recombinant top1 (unknown origin) assessed as DNA cleavage using 3'-[32P]-labeled 117-bp DNA as substrate at 0.1 to 100 uM after 20 mins by SDS-PAGE
T1 sequence (whole entry): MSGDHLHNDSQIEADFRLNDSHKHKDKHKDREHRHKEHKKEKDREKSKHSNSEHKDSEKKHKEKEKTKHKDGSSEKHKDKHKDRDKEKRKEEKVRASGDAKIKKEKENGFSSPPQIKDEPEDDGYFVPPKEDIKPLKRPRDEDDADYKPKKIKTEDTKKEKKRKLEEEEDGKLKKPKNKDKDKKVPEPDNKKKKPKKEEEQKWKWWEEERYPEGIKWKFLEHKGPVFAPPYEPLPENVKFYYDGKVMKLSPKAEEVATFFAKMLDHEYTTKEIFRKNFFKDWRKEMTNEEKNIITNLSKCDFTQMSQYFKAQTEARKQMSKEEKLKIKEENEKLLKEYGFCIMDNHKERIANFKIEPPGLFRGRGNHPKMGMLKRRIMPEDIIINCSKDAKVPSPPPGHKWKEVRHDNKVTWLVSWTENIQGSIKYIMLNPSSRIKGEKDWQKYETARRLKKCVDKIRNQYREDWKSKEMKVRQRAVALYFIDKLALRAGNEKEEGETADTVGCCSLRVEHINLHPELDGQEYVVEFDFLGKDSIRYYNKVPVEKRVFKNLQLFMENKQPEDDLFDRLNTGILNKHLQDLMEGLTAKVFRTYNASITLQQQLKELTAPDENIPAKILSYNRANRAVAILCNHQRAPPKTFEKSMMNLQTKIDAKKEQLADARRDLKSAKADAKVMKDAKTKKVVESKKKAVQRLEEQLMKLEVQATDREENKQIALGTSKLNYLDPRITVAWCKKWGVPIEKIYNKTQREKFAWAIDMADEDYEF

[3] = Cytotoxicity against human NCI60 cells assessed as cell growth at 10 uM after 48 hrs; type: functional; conditions: NCI60, 48 h, read-out: Activity
[4] = Antiproliferative activity against human HCT116 cells after 48 hrs; type: functional; conditions: HCT-116, 48 h
[5] = Antiproliferative activity against human UACC62 cells after 48 hrs; type: functional; conditions: UACC-62, 48 h
[6] = Antiproliferative activity against human OVCAR3 cells after 48 hrs; type: functional; conditions: OVCAR-3, 48 h
[7] = Antiproliferative activity against human HOP62 cells after 48 hrs; type: functional; conditions: HOP-62, 48 h
[8] = Antiproliferative activity against human DU145 cells after 48 hrs; type: functional; conditions: DU-145, 48 h
[9] = Antiproliferative activity against human SF539 cells after 48 hrs; type: functional; conditions: SF-539, 48 h
MCF7 = assay: Antiproliferative activity against human MCF7 cells after 48 hrs; type: functional; conditions: MCF7, 48 h
SN12C = assay: Antiproliferative activity against human SN12C cells after 48 hrs; type: functional
[10] = molecular target: Tyrosyl-DNA phosphodiesterase 1 (Homo sapiens, UniProt Q9NUW8)
Tyrosyl-DNA phosphodiesterase 1, sequence (Q9NUW8 whole entry): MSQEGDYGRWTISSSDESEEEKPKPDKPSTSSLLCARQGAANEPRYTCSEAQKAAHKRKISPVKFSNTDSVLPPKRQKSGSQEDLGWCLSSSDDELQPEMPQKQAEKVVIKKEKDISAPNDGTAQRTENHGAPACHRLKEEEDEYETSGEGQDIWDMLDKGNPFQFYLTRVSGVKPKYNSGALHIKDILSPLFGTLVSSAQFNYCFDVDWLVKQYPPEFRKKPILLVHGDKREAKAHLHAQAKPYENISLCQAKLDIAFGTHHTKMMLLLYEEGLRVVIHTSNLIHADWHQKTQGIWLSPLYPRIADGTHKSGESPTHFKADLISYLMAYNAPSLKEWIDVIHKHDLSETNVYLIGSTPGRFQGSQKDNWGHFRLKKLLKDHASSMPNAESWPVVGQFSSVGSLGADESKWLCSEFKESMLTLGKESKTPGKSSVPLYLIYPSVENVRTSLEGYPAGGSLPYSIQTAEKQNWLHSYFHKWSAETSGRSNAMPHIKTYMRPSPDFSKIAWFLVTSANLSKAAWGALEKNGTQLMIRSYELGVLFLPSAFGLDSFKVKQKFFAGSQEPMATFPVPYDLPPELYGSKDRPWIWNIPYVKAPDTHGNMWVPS

[11] = molecular target: T2, Tyrosyl-DNA phosphodiesterase 2 (Homo sapiens, UniProt O95551)
T2 sequence (O95551 whole entry): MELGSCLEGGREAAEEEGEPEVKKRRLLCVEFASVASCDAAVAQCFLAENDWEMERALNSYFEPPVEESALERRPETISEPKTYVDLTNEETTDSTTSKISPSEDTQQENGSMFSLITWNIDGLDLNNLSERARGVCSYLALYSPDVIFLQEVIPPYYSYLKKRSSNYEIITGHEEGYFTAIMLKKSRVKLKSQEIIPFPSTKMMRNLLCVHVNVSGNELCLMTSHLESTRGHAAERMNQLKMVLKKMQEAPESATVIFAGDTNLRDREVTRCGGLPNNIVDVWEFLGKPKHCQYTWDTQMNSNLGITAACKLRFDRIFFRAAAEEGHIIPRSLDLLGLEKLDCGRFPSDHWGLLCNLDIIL

SMILES: O=C1c2ccccc2-c2c1c1ccccc1c(=O)n2CCCn1ccnc1
- GI50 [1]: 1.86 µM
- Activity [2]: 100%

SMILES: O=C1c2ccccc2-c2c1c1cnccc1c(=O)n2CCCN1CCOCC1
- Activity [2]: 75%

SMILES: O=C1c2ccccc2-c2c1c1ccncc1c(=O)n2CCCn1ccnc1
- growth at 10 µM [3]: 47.5%

SMILES: NCCCn1c2c(c3cccnc3c1=O)C(=O)c1ccccc1-2
- growth at 10 µM [3]: 12.2%
- GI50 [4]: 537 nM
- GI50 [5]: 1350 nM
- GI50 [6]: 2290 nM
- GI50 [7]: 1450 nM
- GI50 [8]: 1910 nM
- GI50 [9]: 1380 nM
- GI50 (MCF7): 417 nM
- GI50 (SN12C): 1120 nM
- Activity [2]: 50%

- Activity [2]: 75%
SMILES: NCCCn1c2c(c3ccccc3c1=O)C(=O)c1ccccc1-2
- GI50 [1]: 0.32 µM

SMILES: O=C1c2ccccc2-c2c1c1cnccc1c(=O)n2CCCn1ccnc1
- growth at 10 µM [3]: 67.8%
- Activity [2]: 50%

SMILES: CN(C)CCCn1c2c(c3cccnc3c1=O)C(=O)c1ccccc1-2
- growth at 10 µM [3]: 5.45%
- GI50 [4]: 437 nM
- GI50 [5]: 1290 nM
- IC50 [10]: 111 µM
- GI50 [6]: 2400 nM
- GI50 [7]: 1260 nM
- GI50 [8]: 1910 nM
- GI50 [9]: 851 nM
- GI50 (MCF7): 363 nM
- GI50 (SN12C): 1120 nM
- Activity [2]: 75%

SMILES: NCCCn1c2c(c3cnccc3c1=O)C(=O)c1ccccc1-2
- IC50 [11]: 111 µM
- Activity [2]: 50%

SMILES: O=C1c2ccccc2-c2c1c1ccncc1c(=O)n2C[C@H](O)CO
- IC50 [10]: > 111 µM
- IC50 [11]: > 111 µM
- Activity [2]: 50%

SMILES: O=C1c2ccccc2-c2c1c1cccnc1c(=O)n2C[C@H](O)CO
- growth at 10 µM [3]: 61.7%
- Activity [2]: 20%

SMILES: CN(C)CCCn1c2c(c3cnccc3c1=O)C(=O)c1ccccc1-2
- growth at 10 µM [3]: -8.83%
- GI50 [4]: 245 nM
- GI50 [5]: 309 nM
- GI50 [6]: 1100 nM
- GI50 [7]: 398 nM
- GI50 [8]: 490 nM
- GI50 [9]: 380 nM
- GI50 (MCF7): 245 nM
- GI50 (SN12C): 288 nM
- Activity [2]: 50%

- Activity [2]: 20%
SMILES: O=C1c2ccccc2-c2c1c1ncccc1c(=O)n2C[C@H](O)CO

SMILES: O=C1c2ccccc2-c2c1c1ncccc1c(=O)n2CCCn1ccnc1
- growth at 10 µM [3]: 83.6%
- Activity [2]: 50%

SMILES: CN(C)CCCn1c2c(c3ccccc3c1=O)C(=O)c1ccccc1-2
- Activity [2]: 75%

SMILES: CN(C)CCCn1c2c(c3ncccc3c1=O)C(=O)c1ccccc1-2
- growth at 10 µM [3]: 44.4%
- Activity [2]: 50%

SMILES: CN(C)CCCn1c2c(c3ccncc3c1=O)C(=O)c1ccccc1-2
- GI50 [4]: 380 nM
- GI50 [5]: 1230 nM
- GI50 [6]: 2000 nM
- GI50 [7]: 871 nM
- GI50 [8]: 977 nM
- GI50 (MCF7): 331 nM
- GI50 (SN12C): 955 nM

SMILES: CC[C@@]1(O)C(=O)OCc2c1cc1n(c2=O)Cc2cc3ccccc3nc2-1 [CAMPTOTHECIN]
- GI50 [6]: 220 nM

SMILES: O=C1c2ccccc2-c2c1c1ncccc1c(=O)n2CCCN1CCOCC1
- growth at 10 µM [3]: 87.9%
- Activity [2]: 50%

SMILES: NCCCn1c2c(c3ccncc3c1=O)C(=O)c1ccccc1-2
- IC50 [11]: 111 µM
- Activity [2]: 0%

SMILES: O=C1c2ccccc2-c2c1c1cccnc1c(=O)n2CCCn1ccnc1
- growth at 10 µM [3]: 49.6%
- Activity [2]: 75%

SMILES: O=C1c2ccccc2-c2c1c1ccccc1c(=O)n2C[C@H](O)CO
- GI50 [1]: 8.71 µM
- Activity [2]: 75%

SMILES: NCCCn1c2c(c3ncccc3c1=O)C(=O)c1ccccc1-2
- Activity [2]: 50%

SMILES: O=C1c2ccccc2-c2c1c1ccccc1c(=O)n2CCCN1CCOCC1
- GI50 [1]: 15.1 µM
- Activity [2]: 50%

SMILES: O=C1c2ccccc2-c2c1c1cnccc1c(=O)n2C[C@H](O)CO
- growth at 10 µM [3]: 85.5%
- Activity [2]: 20%

SMILES: O=C1c2ccccc2-c2c1c1cccnc1c(=O)n2CCCN1CCOCC1
- growth at 10 µM [3]: 42.9%
- Activity [2]: 75%
